Our source for the IC50 values is patent US11352340B2, “Pyridine and pyridimine compounds as PI3K-gamma inhibitors” (Incyte Corporation, priority 2016, dated 2022).

Where a name gives a salt, the structure may show the parent alone.

For assay [1], the target named is PI3Kδ (p110δ/p85α) Recombinant Human Protein (Homo sapiens (Human), UniProt O00329). Kind of assay: PI3Kδ Scintillation Proximity Assay. It counts as biochemical. As to conditions: read-out: PI3K-delta SPA IC50. The method in brief: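 Assay conditions: 2 μM ATP (radiolabelled), 20 μM PIP2, 3.4 nM PI3Kδ, 20 mM MOPS pH 6.7 with 10 mM MgCl2, 5 mM DTT, 0.03% CHAPS, 2 h at room temperature. Signal from bead-captured 33P product; IC50 versus solvent control.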
Chain of PI3Kδ (p110δ/p85α) Recombinant Human Protein (O00329 whole entry): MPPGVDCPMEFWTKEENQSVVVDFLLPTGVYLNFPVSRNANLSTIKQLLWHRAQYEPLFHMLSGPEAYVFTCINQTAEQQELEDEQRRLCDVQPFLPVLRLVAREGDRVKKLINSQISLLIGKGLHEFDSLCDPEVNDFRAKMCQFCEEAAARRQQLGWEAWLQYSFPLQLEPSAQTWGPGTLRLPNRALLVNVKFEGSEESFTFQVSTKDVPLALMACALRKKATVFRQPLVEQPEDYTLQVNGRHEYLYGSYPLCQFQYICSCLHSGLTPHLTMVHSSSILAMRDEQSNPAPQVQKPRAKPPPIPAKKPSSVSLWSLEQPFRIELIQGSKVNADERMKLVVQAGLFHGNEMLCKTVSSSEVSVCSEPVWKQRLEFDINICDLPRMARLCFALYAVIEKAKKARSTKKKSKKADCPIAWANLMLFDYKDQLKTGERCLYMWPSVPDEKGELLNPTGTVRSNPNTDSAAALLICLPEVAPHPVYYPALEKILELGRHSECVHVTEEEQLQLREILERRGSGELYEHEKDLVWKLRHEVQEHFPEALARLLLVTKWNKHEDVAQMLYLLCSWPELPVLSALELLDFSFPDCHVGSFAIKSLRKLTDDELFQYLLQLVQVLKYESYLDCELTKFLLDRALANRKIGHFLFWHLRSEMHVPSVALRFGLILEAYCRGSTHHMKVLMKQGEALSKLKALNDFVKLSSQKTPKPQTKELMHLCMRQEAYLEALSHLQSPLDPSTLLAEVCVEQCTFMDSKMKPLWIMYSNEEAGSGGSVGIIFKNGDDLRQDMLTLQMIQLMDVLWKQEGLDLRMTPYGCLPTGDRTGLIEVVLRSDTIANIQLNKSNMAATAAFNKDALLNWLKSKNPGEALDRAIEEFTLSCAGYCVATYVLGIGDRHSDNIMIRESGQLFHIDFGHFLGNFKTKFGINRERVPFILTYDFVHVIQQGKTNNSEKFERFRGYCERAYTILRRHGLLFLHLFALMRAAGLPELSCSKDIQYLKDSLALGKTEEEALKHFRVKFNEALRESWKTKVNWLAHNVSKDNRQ
Chain of PI3Kδ (p110δ/p85α) Recombinant Human Protein (P27986 whole entry partner): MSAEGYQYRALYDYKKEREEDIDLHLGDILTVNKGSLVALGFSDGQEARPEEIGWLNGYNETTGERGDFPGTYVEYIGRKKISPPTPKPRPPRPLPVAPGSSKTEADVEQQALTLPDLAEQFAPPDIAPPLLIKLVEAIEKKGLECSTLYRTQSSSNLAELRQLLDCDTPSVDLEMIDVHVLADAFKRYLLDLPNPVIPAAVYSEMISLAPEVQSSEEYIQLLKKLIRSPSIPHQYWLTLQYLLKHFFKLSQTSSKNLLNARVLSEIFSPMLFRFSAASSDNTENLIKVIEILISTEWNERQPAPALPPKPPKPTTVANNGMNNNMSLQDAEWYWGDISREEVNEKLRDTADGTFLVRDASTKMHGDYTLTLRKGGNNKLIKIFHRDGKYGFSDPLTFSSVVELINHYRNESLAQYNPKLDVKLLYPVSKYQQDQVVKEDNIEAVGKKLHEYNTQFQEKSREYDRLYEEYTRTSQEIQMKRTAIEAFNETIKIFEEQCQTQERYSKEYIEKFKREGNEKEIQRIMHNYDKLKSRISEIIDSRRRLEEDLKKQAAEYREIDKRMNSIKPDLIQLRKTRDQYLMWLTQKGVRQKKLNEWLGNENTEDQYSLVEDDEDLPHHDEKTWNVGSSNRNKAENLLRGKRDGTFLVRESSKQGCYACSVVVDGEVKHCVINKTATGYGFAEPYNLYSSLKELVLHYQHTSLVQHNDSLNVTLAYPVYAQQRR
(SPA uses beads or plates that emit light when radiolabelled molecules are held near them.)

For assay [2], the target named is PI3Kγ (p110γ) Recombinant Human Protein (Homo sapiens (Human), UniProt P48736). Kind of assay: PI3K-γ Scintillation Proximity Assay. Type of assay: biochemical. The note with it: read-out: PI3K-gamma SPA IC50. The procedure, abridged: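 Radiometric SPA: reaction at room temperature for 120 min using 2 μM ATP with [γ-33P]ATP tracer, 20 μM PIP2 substrate and 13 nM human PI3Kγ (MOPS pH 6.7, MgCl2, DTT, CHAPS; 2% DMSO). EDTA quench with WGA beads, scintillation count, and IC50 fit of percent-of-control activity.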
Chain of PI3Kγ (p110γ) Recombinant Human Protein (P48736 whole entry): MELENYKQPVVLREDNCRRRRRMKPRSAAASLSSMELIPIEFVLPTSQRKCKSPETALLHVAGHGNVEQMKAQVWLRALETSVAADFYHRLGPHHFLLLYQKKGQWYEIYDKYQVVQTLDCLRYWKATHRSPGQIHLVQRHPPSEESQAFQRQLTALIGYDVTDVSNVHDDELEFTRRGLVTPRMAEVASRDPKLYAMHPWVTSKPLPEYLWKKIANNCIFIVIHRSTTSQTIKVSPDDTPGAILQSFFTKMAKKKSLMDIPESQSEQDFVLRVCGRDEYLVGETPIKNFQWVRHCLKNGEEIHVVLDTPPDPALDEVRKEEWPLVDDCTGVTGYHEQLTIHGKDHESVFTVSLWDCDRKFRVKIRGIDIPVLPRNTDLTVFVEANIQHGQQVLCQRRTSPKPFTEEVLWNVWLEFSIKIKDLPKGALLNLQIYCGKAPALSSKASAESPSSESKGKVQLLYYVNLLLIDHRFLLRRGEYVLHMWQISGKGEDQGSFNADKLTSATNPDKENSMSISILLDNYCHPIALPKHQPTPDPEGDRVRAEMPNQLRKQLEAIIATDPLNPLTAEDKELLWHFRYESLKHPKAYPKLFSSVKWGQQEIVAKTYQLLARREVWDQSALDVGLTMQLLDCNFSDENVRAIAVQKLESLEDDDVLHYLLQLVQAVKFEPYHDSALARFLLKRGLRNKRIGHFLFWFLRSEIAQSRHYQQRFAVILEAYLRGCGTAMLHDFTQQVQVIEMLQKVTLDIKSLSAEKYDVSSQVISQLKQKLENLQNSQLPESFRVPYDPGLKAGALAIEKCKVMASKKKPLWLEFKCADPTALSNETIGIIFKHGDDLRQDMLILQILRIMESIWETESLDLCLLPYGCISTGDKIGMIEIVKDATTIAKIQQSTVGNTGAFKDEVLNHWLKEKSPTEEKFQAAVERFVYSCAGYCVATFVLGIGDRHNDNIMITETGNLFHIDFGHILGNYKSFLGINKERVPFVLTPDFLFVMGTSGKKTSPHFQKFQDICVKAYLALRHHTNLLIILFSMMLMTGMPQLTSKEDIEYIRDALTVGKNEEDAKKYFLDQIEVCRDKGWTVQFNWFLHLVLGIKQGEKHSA

Regarding `Cc1nc(-c2cc(C3=CCN(Cc4ccc(Cl)cc4)C3)ccn2)[nH]c1C` [Example 229, 4-(1-(4-Chlorobenzyl)-2,5-dihydro-1H-pyrrol-3-yl)-2-(4,5-dimethyl-1H-imidazol-2-yl)pyridine trifluoroacetate salt], the IC50 in assay [1] and in assay [2] was greater than 500 nM in each case.

Consider `COC(=O)c1ccccc1Cn1cc(-c2ccnc(-c3ncc(-c4ccccc4)[nH]3)c2)cn1` [Example 30, Methyl 2-((4-(2-(5-phenyl-1H-imidazol-2-yl)pyridin-4-yl)-1H-pyrazol-1-yl)methyl)benzoate trifluoroacetate salt], for which the IC50 in assay [1] and in assay [2] was greater than 500 nM each time.

With `Cc1nc(-c2cc(-c3cncc(C(=O)NCC4CCCO4)c3)ccn2)[nH]c1C` (racemic) [Example 167, 2′-(4,5-Dimethyl-1H-imidazol-2-yl)-N-((tetrahydrofuran-2-yl)methyl)-3,4′-bipyridine-5-carboxamide trifluoroacetate salt], the IC50 in assay [1] was no more than 500 nM; in assay [2], no more than 100 nM.

For `N#Cc1cccc(Cn2cc(-c3ccnc(-c4ncc(-c5ccccc5)[nH]4)c3)cn2)c1` [Example 20, 3-((4-(2-(5-Phenyl-1H-imidazol-2-yl)pyridin-4-yl)-1H-pyrazol-1-yl)methyl)benzonitrile trifluoroacetate salt], the IC50 in assay [1] was greater than 500 nM; in assay [2], no more than 500 nM.

As for `Cc1nc(-c2cc(-c3cncc(C(=O)N[C@@H]4CCOC4)c3)ccn2)[nH]c1C` [Example 176, 2′-(4,5-Dimethyl-1H-imidazol-2-yl)-N-[(3R)-tetrahydrofuran-3-yl]-3,4′-bipyridine-5-carboxamide trifluoroacetate salt], the IC50 in assay [1] is no more than 500 nM; in assay [2], no more than 100 nM.

Regarding `CS(=O)(=O)n1cc(-c2ccnc(-c3ncc(-c4ccccc4)[nH]3)c2)cn1` [Example 44, 4-(1-(Methylsulfonyl)-1H-pyrazol-4-yl)-2-(5-phenyl-1H-imidazol-2-yl)pyridine trifluoroacetate salt], the IC50 is no more than 500 nM in assay [1] and greater than 500 nM in assay [2].

Take `O=C(O)CCn1cc(-c2ccnc(-c3ncc(-c4ccccc4)[nH]3)c2)cn1` [Example 57, 3-(4-(2-(5-Phenyl-1H-imidazol-2-yl)pyridin-4-yl)-1H-pyrazol-1-yl)propanoic acid trifluoroacetate salt]: the IC50 was no more than 100 nM in assay [1] and no more than 500 nM in assay [2].

Consider `CN(C)C(=O)Cn1cc(-c2ccnc(-c3ncc(-c4ccccc4)[nH]3)c2)cn1` [Example 49, N,N-Dimethyl-2-(4-(2-(5-phenyl-1H-imidazol-2-yl)pyridin-4-yl)-1H-pyrazol-1-yl)acetamide trifluoroacetate salt], for which the IC50 in assay [1] and in assay [2] was greater than 500 nM throughout.

As for `CCc1cnc(-c2cc(-c3cncc(N4CCOCC4)c3)ccn2)[nH]1` [Example 100, 4-(2′-(5-Ethyl-1H-imidazol-2-yl)-3,4′-bipyridin-5-yl)morpholine trifluoroacetate salt], the IC50 in assay [1] and in assay [2] was no more than 500 nM throughout.

Regarding `O=C(Nc1cncc(-c2ccnc(-c3ncc(-c4ccccc4)[nH]3)c2)c1)c1ccc(Cl)cc1` [Example 135, 4-Chloro-N-(2′-(5-phenyl-1H-imidazol-2-yl)-3,4′-bipyridin-5-yl)benzamide], the IC50 in assay [1] is no more than 500 nM; in assay [2], greater than 500 nM.

Take `NC(=O)Cn1cc(-c2ccnc(-c3ncc(-c4ccccc4)[nH]3)c2)cn1` [Example 48, 2-(4-(2-(5-Phenyl-1H-imidazol-2-yl)pyridin-4-yl)-1H-pyrazol-1-yl)acetamide trifluoroacetate salt]: the IC50 in assay [1] and in assay [2] was greater than 500 nM each time.

Take `Cc1nc(-c2cc(-c3cncc(NCC4CCOCC4)c3)ccn2)[nH]c1C` [Example 145, 2′-(4,5-Dimethyl-1H-imidazol-2-yl)-N-(tetrahydro-2H-pyran-4-ylmethyl)-3,4′-bipyridin-5-amine]: the IC50 was no more than 500 nM in assay [1] and no more than 50 nM in assay [2].

Regarding `c1ccc(-c2cnc(-c3cc(-c4cnn(C5CCOCC5)c4)ccn3)[nH]2)cc1` [Example 47, 2-(5-Phenyl-1H-imidazol-2-yl)-4-(1-(tetrahydro-2H-pyran-4-yl)-1H-pyrazol-4-yl)pyridine trifluoroacetate salt], the IC50 in assay [1] is no more than 50 nM; in assay [2], no more than 500 nM.

On to `O=C(CCn1cc(-c2ccnc(-c3ncc(-c4ccccc4)[nH]3)c2)cn1)NC1CCCC1` [Example 59, N-cyclopentyl-3-(4-(2-(5-phenyl-1H-imidazol-2-yl)pyridin-4-yl)-1H-pyrazol-1-yl)propanamide trifluoroacetate salt], for which the IC50 in assay [1] and in assay [2] was greater than 500 nM each time.

Regarding `COc1cncc(-c2ccnc(-c3nc(C(=O)O)c(C(F)(F)F)[nH]3)c2)c1` [Example 81, 2-(5-Methoxy-3,4′-bipyridin-2′-yl)-5-(trifluoromethyl)-1H-imidazole-4-carboxylic acid trifluoroacetate salt], the IC50 in assay [1] and in assay [2] was greater than 500 nM throughout.

Regarding `Cc1nc(-c2cc(-c3cncc(C4=CCN(C(=O)OC(C)(C)C)C4)c3)ccn2)[nH]c1C` [Example 235, tert-Butyl 3-[2′-(4,5-dimethyl-1H-imidazol-2-yl)-3,4′-bipyridin-5-yl]-2,5-dihydro-1H-pyrrole-1-carboxylate], the IC50 in assay [1] was greater than 500 nM; in assay [2], no more than 500 nM.

For the compound `COc1cncc(-c2ccnc(-c3nnc(C)[nH]3)c2)c1` [Example 73, 5-Methoxy-2′-(5-methyl-4H-1,2,4-triazol-3-yl)-3,4′-bipyridine], the IC50 in assay [1] and in assay [2] was greater than 500 nM throughout.

With `CC(=O)N1CC=C(c2cncc(-c3ccnc(-c4nc(C)c(C)[nH]4)c3)c2)C1` [Example 238, 1-(3-(2′-(4,5-Dimethyl-1H-imidazol-2-yl)-3,4′-bipyridin-5-yl)-2,5-dihydro-1H-pyrrol-1-yl)ethanone], the IC50 in assay [1] is no more than 500 nM; in assay [2] it was greater than 500 nM.

In the case of `COC(=O)N1CC=C(c2cncc(-c3ccnc(-c4nc(C)c(C)[nH]4)c3)c2)C1` [Example 239, Methyl 3-(2′-(4,5-dimethyl-1H-imidazol-2-y1)-3,4′-bipyridin-5-yl)-2,5-dihydro-1H-pyrrole-1-carboxylate], the IC50 in assay [1] and in assay [2] was no more than 500 nM throughout.

In the case of `Cc1nc(-c2cc(-c3cncc(Cl)c3)ccn2)[nH]c1C` [Example 234, 5-Chloro-2′-(4,5-dimethyl-1H-imidazol-2-yl)-3,4′-bipyridine], the IC50 in assay [1] and in assay [2] was no more than 100 nM throughout.

For the compound `c1ccc(-c2cnc(-c3cc(-c4cnn(CCN5CCOCC5)c4)ccn3)[nH]2)cc1` [Example 26, 4-(2-(4-(2-(5-Phenyl-1H-imidazol-2-yl)pyridin-4-yl)-1H-pyrazol-1-yl)ethyl)morpholine trifluoroacetate salt], the IC50 in assay [1] and in assay [2] was greater than 500 nM throughout.

On to `CN1CCN(c2cncc(-c3ccnc(-c4ncc(-c5ccccc5)[nH]4)c3)c2)CC1` [Example 37, 5-(4-Methylpiperazin-1-yl)-2′-(5-phenyl-1H-imidazol-2-yl)-3,4′-bipyridin trifluoroacetate salt], for which the IC50 in assay [1] and in assay [2] was greater than 500 nM each time.

As for `COc1ccccc1Nc1nc(-c2cc(-c3cncc(N4CCOCC4)c3)ccn2)[nH]c1C` [Example 307, N-(2-Methoxyphenyl)-5-methyl-2-(5-morpholin-4-yl-3,4′-bipyridin-2′-yl)-1H-imidazol-4-amine Trifluoroacetate Salt], the IC50 in assay [1] is no more than 50 nM; in assay [2], no more than 500 nM.

`CC(=O)N1CC=C(c2ccnc(-c3nc(C)c(C)[nH]3)c2)CC1` [Example 217, 1(4-(2-(4,5-Dimethyl-1H-imidazol-2-yl)pyridin-4-yl)-5,6-dihydropyridin-1(2H)-yl)ethanone trifluoroacetate salt]: the IC50 in assay [1] and in assay [2] was greater than 500 nM each time.

With `Cc1[nH]c(-c2cc(-c3cncc(N4CCOCC4)c3)ccn2)nc1C(=O)N(C)C1CCOC1` (racemic) [Example 261, N,5-Dimethyl-2-(5-morpholin-4-yl-3,4′-bipyridin-2′-yl)-N-(tetrahydrofuran-3-yl)-1H-imidazole-4-carboxamide], the IC50 in assay [1] and in assay [2] was no more than 500 nM in each case.

Take `COC(=O)c1ccc(Cn2cc(-c3ccnc(-c4ncc(-c5ccccc5)[nH]4)c3)cn2)cc1` [Example 32, Methyl 4-((4-(2-(5-phenyl-1H-imidazol-2-yl)pyridin-4-yl)-1H-pyrazol-1-yl)methyl)benzoate trifluoroacetate salt]: the results for the IC50 in assay [1] and in assay [2] were greater than 500 nM and no more than 500 nM, respectively.

Take `COC(=O)c1cccc(Cn2cc(-c3ccnc(-c4ncc(-c5ccccc5)[nH]4)c3)cn2)c1` [Example 31, Methyl 3-((4-(2-(5-phenyl-1H-imidazol-2-yl)pyridin-4-yl)-1H-pyrazol-1-yl)methyl)benzoate trifluoroacetate salt]: the results for the IC50 in assay [1] and in assay [2] were greater than 500 nM and no more than 500 nM, respectively.

Consider `Cc1nc(-c2cc(-c3cncc(C(=O)N4CCC(O)CC4)c3)ccn2)[nH]c1C` [Example 177, 1-{[2′-(4,5-Dimethyl-1H-imidazol-2-yl)-3,4′-bipyridin-5-yl]carbonyl}piperidin-4-ol], for which the IC50 in assay [1] and in assay [2] was no more than 100 nM each time.
